Results: patent publication US20110003854A1, “BREAST CANCER TREATMENT AND TREATMENT PREDICTION” (priority 2007, published 2011)
Like-named read-outs stand apart in the source and are kept apart here.

Key:
ERα+/PR− tumors = conditions: postmenopausal women, follow-up 6 years, compared to patients treated with tamoxifen; cited from earlier work
[1] = tested on: stage II primary breast carcinoma; test: Controlled, randomized adjuvant tamoxifen trial; Kaplan-Meier survival analysis by CRABP2 level on breast cancer TMA; format: in vivo, human
From the text: Median age at diagnosis was 45 (25-57) years. Median follow-up was 13.9 years and less than 2% of the patients had received adjuvant chemotherapy. The study design is described in detail elsewhere (Rydén et al, Eur J Cancer, 2005, 41(2): 256-64). Ethical permission was obtained from the Local Ethics Committees at Lund and Linköping Universities.
All cases had been histopathologically re-evaluated on hematoxylin and eosin stained slides. TMA:s were then constructed by sampling 2×0.6 mm cores per case from areas representative of invasive cancer. The TMA:s were prepared and automated immunohistochemistry was performed as described in section 3 above, using the CRABP2 antibody prepared as described in section 2 above.
As with “staining intensity” in Examples, Section 3 above, ni was subjectively evaluated in accordance to standards used in clinical histo-pathological diagnostics and outcome was classified as: absent (O)=no immunoreactivity, weak (1)=faint immunoreactivity, moderate (2)=medium immunoreactivity or strong (3)=distinct and strong immunoreactivity. Further, as with “the fraction of stained cells” in Examples, Section 3 above, nf was classified as <2%, 2-25%, 26-75% or >75%. Two categories were defined: “CRABP2 low” corresponding to nf<=25% and ni=0-1; and “CRABP2 high” corresponding to nf>25% and/or ni=2-3 (FIG. 1). This classification of samples was used for recurrence free survival (RFS) or breast cancer specific survival ([…]) analysis according to the Kaplan-Meier estimator, and the log-rank test was used to compare survival in different strata. All statistical tests were two-sided, and p-values of <[…] were considered significant. All calculations were made with the statistical package SPSS 12.0 (SPSS Inc. Illinois, USA).

breast cancer [2] = conditions: cited from earlier work
ERα+/PR+ tumors = conditions: cited from earlier work
[3] = tested on: ERα positive breast cancer; conditions: cited from earlier work
breast cancer [4] = conditions: five years adjuvant tamoxifen after primary surgery; ER positive tumors, irrespective of lymph node status; cited from earlier work

## CC(C)(C#N)c1cc(Cn2cncn2)cc(C(C)(C)C#N)c1 [anastrozole]
ERα+/PR− tumors
  recurrence rate: halved

## CC/C(=C(\c1ccccc1)c1ccc(OCCN(C)C)cc1)c1ccccc1 [tamoxifen]
[1]; CRABP2 high tumors, irrespective of ER status, adjuvant tamoxifen 2 years vs control (FIG. 3B)
  recurrence free survival (RFS): improved survival
[1]; CRABP2 low tumors, irrespective of ER status, tamoxifen vs control (FIG. 3A)
  recurrence free survival (RFS): no impact on survival
[1]; ERα+ and CRABP2 high, tamoxifen vs control (FIG. 4B)
  recurrence free survival (RFS): a trend towards a positive response
[1]; ERα+ and CRABP2 low, tamoxifen vs control (FIG. 4A)
  recurrence free survival (RFS): a trend towards a positive response
[1]; ERα− and CRABP2 high, tamoxifen vs control (FIG. 5B)
  recurrence free survival (RFS): positively affected
[1]; ERα− and CRABP2 high, tamoxifen vs control (FIG. 6B)
  breast cancer specific survival (BCSS): better trend
[1]; ERα− and CRABP2 low, tamoxifen vs control (FIG. 5A)
  recurrence free survival (RFS): negatively affected
[1]; ERα− and CRABP2 low, tamoxifen vs control (FIG. 6A)
  breast cancer specific survival (BCSS): worse trend
[1]; ERα− and PR−, CRABP2 high, tamoxifen vs control (FIG. 11b)
  recurrence free survival (RFS): better trend
[1]; ERα− and PR−, CRABP2 high, tamoxifen vs control (FIG. 12b)
  breast cancer specific survival (BCSS): better trend
[1]; ERα− and PR−, CRABP2 low, tamoxifen vs control (FIG. 11a)
  recurrence free survival (RFS): worse trend
[1]; ERα− and PR−, CRABP2 low, tamoxifen vs control (FIG. 12a)
  breast cancer specific survival (BCSS): worse trend
[1]; ERα− and/or PR−, CRABP2 high, tamoxifen vs control (FIG. 9b)
  recurrence free survival (RFS): better trend
[1]; ERα− and/or PR−, CRABP2 high, tamoxifen vs control (FIG. 10b)
  breast cancer specific survival (BCSS): better trend
[1]; ERα− and/or PR−, CRABP2 low, tamoxifen vs control (FIG. 9a)
  recurrence free survival (RFS): worse trend
[1]; ERα− and/or PR−, CRABP2 low, tamoxifen vs control (FIG. 10a)
  breast cancer specific survival (BCSS): worse trend
[1]; PR− and CRABP2 high, tamoxifen vs control (FIG. 7B)
  recurrence free survival (RFS): better survival probability trend
[1]; PR− and CRABP2 high, tamoxifen vs control (FIG. 8B)
  breast cancer specific survival (BCSS): better trend
[1]; PR− and CRABP2 low, tamoxifen vs control (FIG. 7A)
  recurrence free survival (RFS): negatively affected
[1]; PR− and CRABP2 low, tamoxifen vs control (FIG. 8A)
  breast cancer specific survival (BCSS): worse trend
Breast cancer [2]; high PR level, >75% nuclear fraction, irrespectively of ERα status
  recurrence-free and overall survival: significantly correlated with an increased recurrence-free and overall survival
Breast cancer [2]; lower PR level, <75%
  recurrence-free and overall survival: no positive effect
ERα+/PR+ tumors; older patients (≧60 years), ERα+/PR+ tumors, tamoxifen vs no adjuvant treatment
  disease free survival: significantly longer disease free survival
ERα+/PR+ tumors; younger patients (<60 years)
  disease free survival: no significant effect
[3]
  ERα positive patients that do not respond to treatment: 30-40%
Breast cancer [4]
  breast cancer mortality: reduces the breast cancer mortality
